Measurements published in patent US20090281093A1, “ANTI-INFLAMMATORY COMPOUNDS” (C.T.G. PHARMA S.R.L., priority 2005, published 2009).

Assay: Activity and safety: five-day once daily gavage treatment of rats, deaths and autopsy of the gastrointestinal tract
Format: in vivo
Settings: male rats, once daily by gavage for five days, diclofenac 20 mg/kg, compound of example 1 36 mg/kg; for % deaths: 10 animals/group; for % gastrointestinal ulcer: autopsy at fifth day 6 hr after treatment
Experimental: Thirty male rats (150-200 g) were divided into three groups of 10 animals/group and treated with vehicle, diclofenac (20 mg/kg) and the compound of example 1 (36 mg/kg) for five days once daily by gavage. The vehicle consisted in 1 mL of acidified aqueous solution. At the fifth day, survival animals were sacrificed 6 hr after the treatment, by an overdose of ether, and autopsied to detect any pathological changes, particularly in the gastrointestinal tract. Prostaglandin E2 was evaluated in the liver homogenate by standard enzyme immunoassay procedure as described by Warner T D et al. (J.P.E.T. 2004, 310, 642-7).

| Structure (SMILES) | % deaths [%] | % gastrointestinal ulcer [%] |
| --- | --- | --- |
| O=C(Cc1ccccc1Nc1c(Cl)cccc1Cl)Oc1ccc(-c2cc(=S)ss2)cc1 [Compound example 1, 2-[(2,6-dichlorophenyl)amino]benzeneacetic acid 4-(3H-1,2,dithiole-3-thione-5-yl)-phenyl ester] | 0 | 0 |
| O=C(O)Cc1ccccc1Nc1c(Cl)cccc1Cl [Diclofenac] | 70 | 100 |
